# Reference: PubChem BioAssay (NCI)
# “And” between values parts separate entries of the source, which are not always exact repeats. Equal entries are not always repeated.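 Test compounds were applied to cells in 96-well plates for 48 hours at 5 doses. GI50 marks 50% less growth. At the TGI there is no net growth.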
# System: M14 melanoma
# Experiment: inhibition of tumour cell growth, NCI panel, 48 h
Compound,GI50,TGI
CN(C)CCCNC1=C(Cl)C(=O)c2ccccc2C1=O,1.83 µM,3.38 µM
O=C(Nc1ccc(F)cc1F)c1cc(I)ccc1O,2.21 µM,8.05 µM
CCOc1ccccc1-n1c(CN2CCN(C(=O)COc3ccc(CNCCCCCCN4C5CCCC4CC(OC(=O)Nc4cc(C)ccc4OC)C5)cc3)CC2)nc2ccccc2c1=O (configuration not stated),1.43 µM,3.01 µM
CSc1ccccc1C#C/C=C\C#Cc1ccccc1N1CCCC1=O,> 12.3 µM,> 50 µM
NC1CCC(Nc2nc(NCc3ccc(-c4ccco4)nc3)c3ncn(C4CCCC4)c3n2)CC1 (configuration not stated),0.0213 µM,0.193 µM
O=C(CCl)N1c2ccccc2Oc2ccc3ccccc3c21,1.14 µM,2.56 µM
CCCCCCCCSC1=CC(=O)c2nc3ccccc3c3ccnc1c23,> 100 µM,> 100 µM
Cc1ccc(-c2nnc(-c3ccc4ccccc4c3)o2)cc1,–,> 93.2 µM
COc1ccc(-c2cc(-c3ccc(Nc4nc(Nc5ccccc5)nc(Nc5ccc(Cl)cc5)n4)cc3)nc(N)c2C#N)cc1,0.887 µM,1.81 µM
O=c1n(CC2CO2)c(=O)n(CC2CO2)n1CC1CO1 (configuration not stated),21.9 µM,> 100 µM

# System: OVCAR-8 ovarian
# Experiment: inhibition of tumour cell growth, NCI panel, 48 h
Compound,GI50,TGI
Nc1cc2nc3ccccc3sc-2cc1=O,3.17 µM,13.8 µM
COc1cc2nc(-c3ccc(C(F)(F)F)cc3)cc(OCCCN3CCC(O)CC3)c2cc1OC,1.66 µM,22.2 µM
O=C1NNC(=O)c2ccccc2SSc2ccccc2C(=O)NNC(=O)c2ccccc2SSc2ccccc21,15.4 µM,50 µM and > 100 µM
COc1cc(C(=O)/C=C/c2sc(Cl)nc2Cl)cc(OC)c1OC,1.93 µM,3.96 µM
COc1cc2nc(C)nc(N[C@H](C)c3cc(N)cc(C(F)(F)F)c3)c2cc1O[C@H]1CCOC1,15.5 µM,42.8 µM
O=C1c2ccccc2C(=O)c2sc(Nc3cccc(Cl)c3)nc21,–,3.27 µM
CC1=C(C(=O)Nc2ccc(F)c(Cl)c2)C(c2ccc(Cl)cc2)NC(=O)N1 (configuration not stated),18.4 µM,36.8 µM
Fc1ccc(Nc2ncnc3ccc(-c4cnc5[nH]ccc5c4)cc23)cc1Cl,2.94 µM,14.9 µM
CN(C)CCCNC1=C(Cl)C(=O)c2ccccc2C1=O,2.08 µM,4.39 µM
O=C(Nc1ccc(F)cc1F)c1cc(I)ccc1O,3.23 µM,> 100 µM
CCOc1ccccc1-n1c(CN2CCN(C(=O)COc3ccc(CNCCCCCCN4C5CCCC4CC(OC(=O)Nc4cc(C)ccc4OC)C5)cc3)CC2)nc2ccccc2c1=O (configuration not stated),1.83 µM,3.75 µM
CSc1ccccc1C#C/C=C\C#Cc1ccccc1N1CCCC1=O,> 13.1 µM,> 50 µM
NC1CCC(Nc2nc(NCc3ccc(-c4ccco4)nc3)c3ncn(C4CCCC4)c3n2)CC1 (configuration not stated),0.0431 µM,–
O=C(CCl)N1c2ccccc2Oc2ccc3ccccc3c21,0.78 µM,2.28 µM
CCCCCCCCSC1=CC(=O)c2nc3ccccc3c3ccnc1c23,> 100 µM,> 100 µM
Cc1ccc(-c2nnc(-c3ccc4ccccc4c3)o2)cc1,–,> 100 µM
COc1ccc(-c2cc(-c3ccc(Nc4nc(Nc5ccccc5)nc(Nc5ccc(Cl)cc5)n4)cc3)nc(N)c2C#N)cc1,1.81 µM,> 50 µM
O=c1n(CC2CO2)c(=O)n(CC2CO2)n1CC1CO1 (configuration not stated),27.2 µM,> 100 µM

# System: SF-539 CNS
# Experiment: inhibition of tumour cell growth, NCI panel, 48 h
Compound,GI50,TGI
Nc1cc2nc3ccccc3sc-2cc1=O,2.01 µM,4.26 µM
COc1cc2nc(-c3ccc(C(F)(F)F)cc3)cc(OCCCN3CCC(O)CC3)c2cc1OC,5.75 µM,20.8 µM
O=C1NNC(=O)c2ccccc2SSc2ccccc2C(=O)NNC(=O)c2ccccc2SSc2ccccc21,2.87 µM,50 µM and > 100 µM
COc1cc(C(=O)/C=C/c2sc(Cl)nc2Cl)cc(OC)c1OC,1.72 µM,3.12 µM
COc1cc2nc(C)nc(N[C@H](C)c3cc(N)cc(C(F)(F)F)c3)c2cc1O[C@H]1CCOC1,12.4 µM,25.1 µM
O=C1c2ccccc2C(=O)c2sc(Nc3cccc(Cl)c3)nc21,–,3.44 µM
CC1=C(C(=O)Nc2ccc(F)c(Cl)c2)C(c2ccc(Cl)cc2)NC(=O)N1 (configuration not stated),14 µM,29.7 µM
Fc1ccc(Nc2ncnc3ccc(-c4cnc5[nH]ccc5c4)cc23)cc1Cl,2.3 µM,7.65 µM
CN(C)CCCNC1=C(Cl)C(=O)c2ccccc2C1=O,12.8 µM,27 µM
O=C(Nc1ccc(F)cc1F)c1cc(I)ccc1O,2.83 µM,10.2 µM
CCOc1ccccc1-n1c(CN2CCN(C(=O)COc3ccc(CNCCCCCCN4C5CCCC4CC(OC(=O)Nc4cc(C)ccc4OC)C5)cc3)CC2)nc2ccccc2c1=O (configuration not stated),1.69 µM,3.14 µM
CSc1ccccc1C#C/C=C\C#Cc1ccccc1N1CCCC1=O,> 11.4 µM,> 50 µM
NC1CCC(Nc2nc(NCc3ccc(-c4ccco4)nc3)c3ncn(C4CCCC4)c3n2)CC1 (configuration not stated),0.0379 µM,0.204 µM
O=C(CCl)N1c2ccccc2Oc2ccc3ccccc3c21,1.59 µM,3.1 µM
CCCCCCCCSC1=CC(=O)c2nc3ccccc3c3ccnc1c23,> 100 µM,> 100 µM
Cc1ccc(-c2nnc(-c3ccc4ccccc4c3)o2)cc1,–,> 60.2 µM
